In DBAASP:
Converted amounts (≈) assume the structure as drawn.

Experiments:
Assay in all cases: ≥ marks a high value that may be exact or a test limit, other limits are often not marked, values filed in µg/mL are converted to µM
[1] = system: Escherichia coli ATCC 25922
[2] = system: Staphylococcus aureus ATCC 29213
[3] = system: Pseudomonas aeruginosa ATCC 27853
[4] = system: Lacticaseibacillus rhamnosus 7469
[5] = system: Candida tropicalis CGMCC 2.1975
[6] = system: Salmonella enterica subsp. enterica serovar Typhimurium ATCC 14028
[7] = system: Candida parapsilosis CGMCC 2.3989
Escherichia coli 987P = system: Escherichia coli 987P
Escherichia coli 078 = system: Escherichia coli 078
Escherichia coli UB1005 = system: Escherichia coli UB1005
[8] = system: Staphylococcus epidermidis ATCC 12228
[9] = system: Lactiplantibacillus plantarum 8014
Escherichia coli K99 = system: Escherichia coli K99
Escherichia coli K88 = system: Escherichia coli K88
[10] = system: Candida albicans CGMCC 2.2086
[11] = system: Staphylococcus aureus ATCC 25923
[12] = system: Pseudomonas aeruginosa PAO1
[13] = system: Salmonella enterica subsp. enterica serovar Typhimurium C77-31
[14] = system: Candida tropicalis IOC 4560
Candida albicans MDM8 = system: Candida albicans MDM8
[15] = system: Bacillus megaterium ATCC 10778
[16] = system: Serratia marcescens ATCC 4112
Micrococcus luteus A270 = system: Micrococcus luteus A270
[17] = system: Enterobacter cloacae beta-12
Escherichia coli SBS 363 = system: Escherichia coli SBS 363
[18] = system: Bacillus subtilis ATCC 6633
[19] = system: Klebsiella pneumoniae ATCC BAA-1705
Escherichia coli W3110 = system: Escherichia coli W3110

| SMILES | MIC [2] [µM] | MIC [3] [µM] | MIC [8] [µM] | MIC [14] [µM] | MIC (Candida albicans MDM8) [µM] | MIC [15] [µM] | MIC [16] [µM] | MIC (Micrococcus luteus A270) [µM] | MIC [17] [µM] | MIC (Escherichia coli SBS 363) [µM] | MIC [19] [µM] | MIC (Escherichia coli W3110) [µM] | other results |
| --- | --- | --- | --- | --- | --- | --- | --- | --- | --- | --- | --- | --- | --- |
| CC[C@H](C)[C@H](N)C(=O)N[C@@H](Cc1cnc[nH]1)C(=O)N[C@@H](Cc1cnc[nH]1)C(=O)N[C@H](C(=O)N[C@@H](Cc1cnc[nH]1)C(=O)N[C@@H](Cc1cnc[nH]1)C(=O)N[C@@H](Cc1cnc[nH]1)C(N)=O)[C@@H](C)CC [IHHIHHH] | > 64 | > 64 | > 64 |  |  |  |  |  |  |  |  |  | MIC [1]: > 64 µM; MIC [4]: ≥ 64 µM; MIC [5]: ≥ 64 µM; MIC [6]: > 64 µM; MIC [7]: ≥ 64 µM; MIC (Escherichia coli 987P): ≥ 64 µM; MIC (Escherichia coli 078): ≥ 64 µM; MIC (Escherichia coli UB1005): ≥ 64 µM; MIC [9]: ≥ 64 µM; MIC (Escherichia coli K99): ≥ 64 µM; MIC (Escherichia coli K88): ≥ 64 µM; MIC [10]: ≥ 64 µM; MIC [11]: 64 µM (≈ 59.5 µg/mL); MIC [12]: > 64 µM; MIC [13]: ≥ 64 µM |
| CC(C)C[C@H](NC(=O)[C@H](C)NC(=O)CNC(=O)[C@H](CC(C)C)NC(=O)[C@@H](N)Cc1ccccc1)C(=O)N[C@@H](Cc1c[nH]c2ccccc12)C(=O)N[C@@H](CC(N)=O)C(=O)N[C@H](C(=O)N[C@@H](Cc1ccccc1)C(=O)N[C@@H](CCCCN)C(=O)N[C@@H](CO)C(=O)N[C@H](C(=O)N[C@@H](Cc1ccccc1)C(N)=O)C(C)C)C(C)C [FLGALWNVFKSVF] | 0.8 (≈ 1.22 µg/mL) | > 50 |  | 1.6 (≈ 2.44 µg/mL) | 6.3 (≈ 9.62 µg/mL) | 1.6 (≈ 2.44 µg/mL) | 0.4 (≈ 0.611 µg/mL) | 0.8 (≈ 1.22 µg/mL) | ≥ 50 | 3.1 (≈ 4.73 µg/mL) |  |  | MIC [18]: 0.8 µM (≈ 1.22 µg/mL) |
| CC[C@H](C)[C@H](N)C(=O)N[C@@H](Cc1c[nH]c2ccccc12)C(=O)N[C@@H](Cc1c[nH]c2ccccc12)C(=O)N[C@@H](C)C(=O)N[C@@H](CCCCN)C(=O)N[C@@H](Cc1c[nH]c2ccccc12)C(=O)NCC(=O)N[C@@H](CC(C)C)C(=O)N[C@@H](CCCCN)C(=O)N[C@@H](Cc1c[nH]c2ccccc12)C(=O)N[C@@H](CC(C)C)C(=O)N[C@@H](CCCN=C(N)N)C(=O)N[C@@H](Cc1ccc(O)cc1)C(=O)N[C@@H](CCCN=C(N)N)C(=O)N[C@@H](CCCN=C(N)N)C(=O)N[C@H](C(=O)N[C@@H](Cc1ccc(O)cc1)C(=O)O)[C@@H](C)CC [IWWAKWGLKWLRYRRIY] |  |  |  |  |  |  |  |  |  |  | 16 (≈ 38.3 µg/mL) | 2 (≈ 4.79 µg/mL) |  |
| CC[C@H](C)[C@H](N)C(=O)N[C@@H](Cc1c[nH]c2ccccc12)C(=O)N[C@@H](Cc1c[nH]c2ccccc12)C(=O)N[C@@H](C)C(=O)N[C@@H](CCCCN)C(=O)N[C@@H](Cc1c[nH]c2ccccc12)C(=O)NCC(=O)N[C@@H](CC(C)C)C(=O)N[C@@H](CCCCN)C(=O)N[C@@H](CC(C)C)C(=O)N[C@@H](CC(C)C)C(=O)N[C@@H](CCCN=C(N)N)C(=O)N[C@@H](Cc1ccc(O)cc1)C(=O)N[C@@H](CCCN=C(N)N)C(=O)N[C@@H](CCCN=C(N)N)C(=O)N[C@@H](Cc1c[nH]c2ccccc12)C(=O)N[C@@H](Cc1ccc(O)cc1)C(=O)O [IWWAKWGLKLLRYRRWY] |  |  |  |  |  |  |  |  |  |  | 4 (≈ 9.58 µg/mL) | 1 (≈ 2.39 µg/mL) |  |
| CC(C)C[C@H](NC(=O)[C@H](C)NC(=O)CNC(=O)[C@H](CC(C)C)NC(=O)[C@@H](N)CCCCN)C(=O)N[C@@H](Cc1c[nH]c2ccccc12)C(=O)N[C@@H](CC(N)=O)C(=O)N[C@H](C(=O)N[C@@H](C)C(=O)N[C@@H](CCCCN)C(=O)N[C@@H](CO)C(=O)N[C@H](C(=O)N[C@@H](Cc1ccccc1)C(N)=O)C(C)C)C(C)C [KLGALWNVAKSVF] | 50 (≈ 71.6 µg/mL) |  | > 50 | 6.3 (≈ 9.02 µg/mL) | 3.1 (≈ 4.44 µg/mL) | 6.3 (≈ 9.02 µg/mL) | 6.3 (≈ 9.02 µg/mL) | 6.3 (≈ 9.02 µg/mL) | ≥ 50 | ≥ 50 |  |  |  |
